Experimental data reported in patent US20240336622A1 (The Board of Regents of The University of Texas System, priority 2021, published 2024).

Test system: PARP1
Experiment: PARP1 trapping activity of nimbolide analogs (FIGS. 19, 20)
Format: cell-based
Details: FIG. 19

Row | Compound | trapping activity compared to nimbolide
1 | COC(=O)C[C@H]1[C@]2(C)C3=C(C)[C@H](c4ccoc4-c4ccc(O[Si](C)(C)C(C)(C)C)cc4)C[C@H]3O[C@@H]2[C@@H]2OC(=O)[C@]3(C)C=CC(=O)[C@@]1(C)[C@@H]23 [S-46] | more potent trapping activity

Same assay, conditions: FIGS. 19 and 20

Row | Compound | PARP1 trapping by nimbolide analogs
2 | C=C1[C@H](O[C@H]2CCC(C)=C2I)[C@@H]2OC(=O)[C@]3(C)C=CC(=O)[C@@](C)([C@@H]23)[C@H]1CC(=O)OC [S-84] | induce profound PARP1 trapping
3 | COC(=O)C[C@H]1[C@]2(C)C3=C(C)[C@H](c4ccoc4-c4ccc(O[Si](C)(C)C(C)(C)C)cc4)C[C@H]3O[C@@H]2[C@@H]2OC(=O)[C@]3(C)C=CC(=O)[C@@]1(C)[C@@H]23 [S-46] | induce PARP1 trapping
4 | CC[Si](CC)(CC)O[C@H]1C(=O)[C@H](CC(=O)OC)[C@@]2(C)C(=O)C=C[C@@]3(C)C(=O)O[C@@H]1[C@H]23 [S-39] | induce PARP1 trapping
5 | C=C1[C@H](O[C@@H]2C[C@@H](c3ccoc3)C(C)=C2I)[C@@H]2OC(=O)[C@]3(C)C=CC(=O)[C@@](C)([C@@H]23)[C@H]1CC(=O)OC [S-26] | induce profound PARP1 trapping

Test system: UWB1 cells
Experiment: cells
Details: read-out: IC50 (μM) UWB1 cells

Row | Compound | IC50
6 | CC[Si](CC)(CC)O[C@H]1C(=O)[C@H](CC(=O)OC)[C@@]2(C)C(=O)C=C[C@@]3(C)C(=O)O[C@@H]1[C@H]23 [S-39] | 1.18 µM
7 | COC(=O)C[C@H]1[C@@H]2CC3=C(C)[C@@H](c4ccc(O[Si](C)(C)C(C)(C)C)cc4)C[C@@H]3O[C@@H]2[C@@H]2OC(=O)[C@]3(C)C=CC(=O)[C@@]1(C)[C@@H]23 [S-122] | 0.0534 µM
8 | COC(=O)C[C@H]1[C@@H]2CC3=C(C)[C@@H](c4cccc(O[Si](C)(C)C(C)(C)C)c4)C[C@H]3O[C@@H]2[C@@H]2OC(=O)[C@]3(C)C=CC(=O)[C@@]1(C)[C@@H]23 [S-115] | 0.196 µM
9 | COC(=O)C[C@H]1[C@]2(C)C3=C(C)[C@H](c4ccccc4O[Si](C)(C)C(C)(C)C)C[C@H]3O[C@@H]2[C@@H]2OC(=O)[C@]3(C)C=CC(=O)[C@@]1(C)[C@@H]23 [S-128] | 0.0908 µM
10 | COC(=O)C[C@H]1[C@@H]2CC3=C(C)[C@@H](c4ccc(O[Si](C)(C)C(C)(C)C)cc4)C[C@H]3O[C@@H]2[C@@H]2OC(=O)[C@]3(C)C=CC(=O)[C@@]1(C)[C@@H]23 [S-121] | 0.19 µM
11 | COC(=O)C[C@H]1[C@]2(C)C3=C(C)[C@@H](c4ccc(CO[Si](C)(C)C(C)(C)C)cc4)C[C@H]3O[C@@H]2[C@@H]2OC(=O)[C@]3(C)C=CC(=O)[C@@]1(C)[C@@H]23 [S-148] | 0.161 µM
12 | COC(=O)C[C@H]1[C@@H]2CC3=C(C)CC[C@@H]3O[C@@H]2[C@@H]2OC(=O)[C@]3(C)C=CC(=O)[C@@]1(C)[C@@H]23 [S-98] | 0.83 µM
13 | COC(=O)C[C@H]1[C@@H]2CC3=C(C)[C@H](c4ccc(O[Si](C)(C)C(C)(C)C)cc4)C[C@@H]3O[C@@H]2[C@@H]2OC(=O)[C@]3(C)C=CC(=O)[C@@]1(C)[C@@H]23 [S-119] | 0.188 µM
14 | COC(=O)C[C@H]1[C@@H]2CC3=C(C)[C@H](c4ccccc4O[Si](C)(C)C(C)(C)C)C[C@@H]3O[C@@H]2[C@@H]2OC(=O)[C@]3(C)C=CC(=O)[C@@]1(C)[C@@H]23 [S-127] | 0.927 µM
15 | CC[Si](CC)(CC)O[C@H]1C(=O)[C@H](CC(=O)OC)[C@@]2(C)C=CC(=O)[C@@]3(C)C(=O)O[C@@H]1[C@@H]32 [S-38] | > 10 µM
16 | C=C1[C@H](O[Si](C)(C)C)[C@H](O[Si](C)(C)C)[C@@H]2[C@](C)(C(=O)C=C[C@@]2(C)C(=O)OC)[C@H]1CC(=O)OC [S-16-a] | > 10 µM
17 | COC(=O)C[C@H]1[C@]2(C)C3=C(C)[C@H](c4ccc(O[Si](C)(C)C(C)(C)C)cc4)C[C@H]3O[C@@H]2[C@@H]2OC(=O)[C@]3(C)C=CC(=O)[C@@]1(C)[C@@H]23 [S-117] | 0.0788 µM
18 | C=C1[C@H](O[C@H]2C[C@@H](c3ccoc3)C(C)=C2I)[C@@H]2OC(=O)[C@]3(C)C=CC(=O)[C@@](C)([C@@H]23)[C@H]1CC(=O)OC [S-27] | 0.415 µM
19 | C=C1[C@H](O[C@@H]2C[C@@H](c3ccoc3)C(C)=C2I)[C@@H]2OC(=O)[C@]3(C)C=CC(=O)[C@@](C)([C@@H]23)[C@H]1CC(=O)OC [S-26] | 0.226 µM
20 | COC(=O)C[C@H]1[C@@H]2CC3=C(C)[C@@H](c4ccc(CO[Si](C)(C)C(C)(C)C)cc4)C[C@@H]3O[C@@H]2[C@@H]2OC(=O)[C@]3(C)C=CC(=O)[C@@]1(C)[C@@H]23 [S-149] | 0.163 µM

Same assay, conditions: read-out: IC50 (μM) UWB1 cells, UWB1 cell viability

Row | Compound | IC50
21 | C=C1[C@H](O[C@H]2CCC(C)=C2I)[C@@H]2OC(=O)[C@]3(C)C=CC(=O)[C@@](C)([C@@H]23)[C@H]1CC(=O)OC [S-84] | 0.183 µM
22 | COC(=O)C[C@H]1[C@]2(C)C3=C(C)[C@H](c4ccoc4-c4ccc(O[Si](C)(C)C(C)(C)C)cc4)C[C@H]3O[C@@H]2[C@@H]2OC(=O)[C@]3(C)C=CC(=O)[C@@]1(C)[C@@H]23 [S-46] | 0.089 µM
23 | COC(=O)C[C@H]1[C@]2(C)C3=C(C)[C@H](c4ccoc4)C[C@H]3O[C@@H]2[C@H](O)[C@@H]2[C@]1(C)C(=O)C=C[C@@]2(C)C(=O)OC [S-63, 6-deacetylnimbin] | > 10 µM
24 | COC(=O)C[C@H]1[C@]2(C)C3=C(C)[C@H](c4ccoc4)C[C@H]3O[C@@H]2[C@H](OC(C)=O)[C@@H]2[C@]1(C)C(=O)C=C[C@@]2(C)C(=O)OC [S-64, nimbin] | > 10 µM
25 | COC(=O)C[C@H]1[C@]2(C)C3=C(C)[C@H](c4ccc(OC)cc4)C[C@H]3O[C@@H]2[C@@H]2OC(=O)[C@]3(C)C=CC(=O)[C@@]1(C)[C@@H]23 [S-107] | 0.27 µM
26 | COC(=O)C[C@H]1[C@]2(C)C3=C(C)[C@H](c4ccc(C(C)(C)C)cc4)C[C@H]3O[C@@H]2[C@@H]2OC(=O)[C@]3(C)C=CC(=O)[C@@]1(C)[C@@H]23 [S-141] | 0.248 µM
27 | C=C1[C@H](O[C@H]2C=C(C)[C@H](c3ccoc3)C2)[C@@H]2OC(=O)[C@]3(C)C=CC(=O)[C@@](C)([C@@H]23)[C@H]1CC(=O)OC [S-26-1] | 0.265 µM
28 | COC(=O)C[C@H]1[C@@H]2CC3=C(C)[C@H](c4ccoc4)C[C@@H]3O[C@@H]2[C@@H]2OC(=O)[C@]3(C)C=CC(=O)[C@@]1(C)[C@@H]23 [S-57] | 0.591 µM
29 | COC(=O)C[C@H]1[C@]2(C)C3=C(C)[C@H](c4ccoc4)C[C@H]3O[C@@H]2[C@@H]2OC(=O)[C@]3(C)CCC(=O)[C@@]1(C)[C@@H]23 [S-60, 2,3-dihydronimbolide] | > 10 µM
30 | COC(=O)C[C@H]1[C@@H]2CC3=C(C)[C@@H](c4ccc(-c5cc(C(C)(C)C)cc(C(C)(C)C)c5)cc4)C[C@H]3O[C@@H]2[C@@H]2OC(=O)[C@]3(C)C=CC(=O)[C@@]1(C)[C@@H]23 [S-136] | 0.0934 µM
31 | COC(=O)C[C@H]1[C@@H]2CC3=C(C)[C@H](c4ccc(-c5cc(C(C)(C)C)cc(C(C)(C)C)c5)cc4)C[C@@H]3O[C@@H]2[C@@H]2OC(=O)[C@]3(C)C=CC(=O)[C@@]1(C)[C@@H]23 [S-134] | 0.091 µM
32 | COC(=O)C[C@H]1[C@@H]2CC3=C(C)[C@@H](c4ccccc4)C[C@@H]3O[C@@H]2[C@@H]2OC(=O)[C@]3(C)C=CC(=O)[C@@]1(C)[C@@H]23 [S-103] | 0.16 µM
33 | COC(=O)C[C@H]1[C@]2(C)C3=C(C)[C@H](c4ccoc4Br)C[C@H]3O[C@@H]2[C@@H]2OC(=O)[C@]3(C)C=CC(=O)[C@@]1(C)[C@@H]23 [S-41] | 0.465 µM
34 | COC(=O)C[C@H]1[C@@H]2CC3=C(C)[C@@H](c4ccc(CO)cc4)C[C@@H]3O[C@@H]2[C@@H]2OC(=O)[C@]3(C)C=CC(=O)[C@@]1(C)[C@@H]23 [S-150] | 0.351 µM
35 | COC(=O)C[C@H]1[C@]2(C)C3=C(C)[C@H](c4ccc(OC(=O)C(C)(C)C)cc4)C[C@H]3O[C@@H]2[C@@H]2OC(=O)[C@]3(C)C=CC(=O)[C@@]1(C)[C@@H]23 [S-124] | 0.564 µM
36 | COC(=O)C[C@H]1[C@@H]2CC3=C(C)[C@@H](c4ccc(-c5cc(C(C)(C)C)cc(C(C)(C)C)c5)cc4)C[C@@H]3O[C@@H]2[C@@H]2OC(=O)[C@]3(C)C=CC(=O)[C@@]1(C)[C@@H]23 [S-137] | 0.169 µM
37 | COC(=O)C[C@H]1[C@]2(C)C3=C(C)[C@H](c4ccoc4-c4ccc(OC)nc4)C[C@H]3O[C@@H]2[C@@H]2OC(=O)[C@]3(C)C=CC(=O)[C@@]1(C)[C@@H]23 [S-43] | 0.208 µM
38 | COC(=O)C[C@H]1[C@@H]2CC3=C(C)[C@H](c4ccc(OC)cc4)C[C@@H]3O[C@@H]2[C@@H]2OC(=O)[C@]3(C)C=CC(=O)[C@@]1(C)[C@@H]23 [S-108] | 0.11 µM
39 | COC(=O)C[C@H]1[C@]2(C)C3=C(C)[C@H](c4ccoc4-c4ccc(OC)cc4C)C[C@H]3O[C@@H]2[C@@H]2OC(=O)[C@]3(C)C=CC(=O)[C@@]1(C)[C@@H]23 [S-48] | 0.212 µM
40 | CC1=C2[C@@H](C[C@H]1c1ccoc1)O[C@@H]1[C@@H]3OC(=O)[C@]4(C)C=CC(=O)[C@](C)([C@@H](CC(=O)OC(C)(C)C)[C@]21C)[C@@H]34 [S-154] | 0.453 µM
41 | COC(=O)C[C@H]1[C@]2(C)C3=C(C)[C@H](c4ccc(O)cc4)C[C@H]3O[C@@H]2[C@@H]2OC(=O)[C@]3(C)C=CC(=O)[C@@]1(C)[C@@H]23 [S-123] | 0.464 µM
42 | COC(=O)C[C@H]1[C@@H]2CC3=C(C)[C@@H](c4ccc(C(=O)O)cc4)C[C@@H]3O[C@@H]2[C@@H]2OC(=O)[C@]3(C)C=CC(=O)[C@@]1(C)[C@@H]23 [S-152] | 2.88 µM
43 | COC(=O)C[C@H]1[C@]2(C)C3=C(C)[C@H](c4ccoc4-c4ccoc4)C[C@H]3O[C@@H]2[C@@H]2OC(=O)[C@]3(C)C=CC(=O)[C@@]1(C)[C@@H]23 [S-47] | 0.296 µM
44 | C=C1[C@H](O)[C@@H]2OC(=O)[C@]3(C)C=CC(=O)[C@@](C)([C@@H]23)[C@H]1CC(=O)OC(C)(C)C [S-156] | 3.65 µM
45 | C#CCOC(=O)c1ccc(-c2occc2[C@@H]2C[C@H]3O[C@@H]4[C@@H]5OC(=O)[C@]6(C)C=CC(=O)[C@](C)([C@@H](CC(=O)OC)[C@]4(C)C3=C2C)[C@@H]56)cc1 [S-112a] | 0.198 µM
46 | C=C1[C@H](O)[C@@H]2OC(=O)[C@]3(C)C=CC(=O)[C@@](C)([C@@H]23)[C@H]1CC(=O)OC [S-16] | > 10 µM
47 | COC(=O)C[C@H]1[C@]2(C)C3=C(C)[C@H](c4ccoc4-c4ccccc4OC)C[C@H]3O[C@@H]2[C@H](O)[C@H]2C(C)=CCC(=O)[C@]12C [S-56] | > 10 µM
48 | CCC(C)NC(=O)c1ccc(-c2occc2[C@@H]2C[C@H]3O[C@@H]4[C@@H]5OC(=O)[C@]6(C)C=CC(=O)[C@](C)([C@@H](CC(=O)OC)[C@]4(C)C3=C2C)[C@@H]56)cc1 (stereo partly drawn) [S-53] | 0.17 µM

Test system: UWB1 cells
Experiment: not given
Details: not given

Row | Compound | cytotoxicity against UWB1 cells
49 | COC(=O)C[C@H]1[C@]2(C)C3=C(C)[C@H](c4ccoc4-c4ccc(O[Si](C)(C)C(C)(C)C)cc4)C[C@H]3O[C@@H]2[C@@H]2OC(=O)[C@]3(C)C=CC(=O)[C@@]1(C)[C@@H]23 [S-46] | excellent cytotoxicity

Same assay, conditions: read-out: IC50 (μM) UWB1 cells, UWB1 cell viability

Row | Compound | IC50
50 | COC(=O)C[C@H]1[C@]2(C)C3=C(C)[C@H](C4=CC(=O)OC4OC(C)=O)C[C@H]3O[C@@H]2[C@@H]2OC(=O)[C@]3(C)C=CC(=O)[C@@]1(C)[C@@H]23 (stereo partly drawn) [S-51] | 0.954 µM

Test system: UWB1, A673, Fadu, H2058, H1048, MDA-MB-468 cells
Experiment: Cytotoxicity in cancer cell lines with different genetic background (cell titer glo)
Format: cell-based
Details: 1 μM for 96 hours
Description: Cells were then subjected to cell titer glo analysis. Data represent mean±SEM.

Row | Compound | sensitivity of cell lines (UWB1, A673, Fadu, H2058, H1048, MDA-MB-468)
51 | CNCc1ccc(-c2[nH]c3cc(F)cc4c3c2CCNC4=O)cc1 [Rucaparib, rucaparib] | different degrees of sensitivity
